Laboratory results published in publication PMC10002517, “Inhibition of Transglutaminase 2 as a Therapeutic Strategy in Celiac Disease—In Vitro Studies in Intestinal Cells and Duodenal Biopsies” (International Journal of Molecular Sciences, 2023).

Experiments:
[1] = target: T1, TG2 in the intestinal lamina propria (Homo sapiens, UniProt P21980); assay: TG2 activity in cryosections of duodenal biopsies from CD patients (5BP, confocal microscopy); type: biochemical; conditions: 1 h before 5BP, mean ± SD, n = 6 patients
T1 construct: from tissue; host or cells: duodenal biopsies from celiac disease patients (unfixed 400 nm cryosections, lamina propria)
T1 sequence (P21980 1-687): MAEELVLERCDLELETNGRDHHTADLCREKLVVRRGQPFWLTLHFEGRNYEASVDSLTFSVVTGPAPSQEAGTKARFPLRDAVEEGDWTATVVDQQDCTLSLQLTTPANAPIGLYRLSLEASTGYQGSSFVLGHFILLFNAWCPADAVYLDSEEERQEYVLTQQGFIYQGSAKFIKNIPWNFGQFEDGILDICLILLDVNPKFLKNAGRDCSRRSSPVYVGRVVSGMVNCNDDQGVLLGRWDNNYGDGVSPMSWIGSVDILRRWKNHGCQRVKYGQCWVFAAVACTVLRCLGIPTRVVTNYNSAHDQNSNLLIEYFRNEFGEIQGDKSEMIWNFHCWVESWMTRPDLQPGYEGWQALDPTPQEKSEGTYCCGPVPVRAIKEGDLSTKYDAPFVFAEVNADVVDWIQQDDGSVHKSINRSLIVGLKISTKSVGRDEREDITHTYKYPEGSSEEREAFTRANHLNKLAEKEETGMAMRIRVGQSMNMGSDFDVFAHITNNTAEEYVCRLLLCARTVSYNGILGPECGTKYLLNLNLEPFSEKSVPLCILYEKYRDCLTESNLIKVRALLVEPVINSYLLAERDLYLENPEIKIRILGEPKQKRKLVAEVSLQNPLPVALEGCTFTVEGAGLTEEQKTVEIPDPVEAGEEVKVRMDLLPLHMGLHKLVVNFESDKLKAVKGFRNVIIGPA
Experimental: For immunofluorescence microscopic investigation of transglutaminase activity, only biopsies with minor macroscopic inflammatory signs were used. After endoscopy, biopsies were immediately washed three times in PBS and cryopreserved in polyvinylpyrrolidone sucrose at 4 °C overnight. Biopsies were mounted on specimen holders using Tissue-Tek O.C.T (Sakura Finetek, Staufen im Breisgau, Germany) compound and frozen in liquid nitrogen. For evaluation of transglutaminase activity by the post-embedding procedure, 400 nm cryosections were obtained using a cryo-ultramicrotome (Leica EM UC6, Leica, Wetzlar, Germany) and mounted on class cover slides. After three brief washes with PBS, tissue sections were incubated with the indicated concentrations of the inhibitors for 1 h in tris buffer. Then, the TG2 substrate 5BP was incubated for 1 h at 37 °C in tris buffer containing DTT at the indicated concentration. Slides were washed three times in PBS, fixed in 4% paraformaldehyde (10 min), permeabilized with 0.5% Triton (10 min) and incubated with blocking solution (0.1% cold water fish skin gelatin + 5% BSA + 5% goat serum, 10 min). Afterwards, a rabbit polyclonal antibody directed against human TG2 (Kan5, kindly provided by Dr T. Mothes, Institute of Laboratory Medicine, University Hospital Leipzig, Germany) was applied at 1:200 dilution in blocking solution overnight at 4 °C. After three washing steps (each 5 min) with PBS, Alexa Fluor-555-conjugated secondary antibody (goat-anti-rabbit, 1:200, Thermo Fisher Scientific) and Alexa Fluor-488-conjugated streptavidin (2 µg/mL, Thermo Fisher Scientific) were incubated at room temperature in the dark for 1 h. After three washes with PBS, samples were covered in ProLong Gold antifade mountant (Thermo Fisher Scientific) and sealed with clear nail polish. Sealed slides were stored in the dark at 4 °C until microscopy.
Imaging was done using a confocal laser scanning microscope (TE2000-E, Nikon, Langen, Germany) and a 60× Plan Apo (NA 1.41) immersion oil objective. The detailed acquisition settings and the corresponding macro (Image J [46]) for image processing can be accessed in the Supplementary Materials methods (S1). Five images per patient where quantified. For quantitation, mean fluorescence intensity of TG2 activity (488 nm channel) was normalized to TG2 expression (555 nm channel) within the intestinal lamina propria.

[2] = target: T2, TG2 in Caco-2 cell lysates (Homo sapiens, UniProt P21980); assay: Transglutaminase activity in Caco-2 whole cell lysates (5BP cross-linking); type: biochemical; conditions: 10 µM inhibitor (b1); lysate of differentiated Caco-2 cells incubated with 5BP and inhibitor overnight; mean ± SD, n = 3
T2 construct: endogenous in cells; host or cells: Caco-2 (differentiated; IFN-γ-stimulated in the monolayer assay)
T2 sequence (P21980 1-687): T1 sequence (P21980 1-687)
Experimental: The method to investigate TG2 activity from whole cell lysates was adapted from Lin et al.. In brief, 20 µg protein per cavity on the 96-well plate were incubated in 50 mM Tris, 1 mM EDTA, 5 mM calcium chloride (pH 7.5) buffer in the presence of 500 µM 5BP (5-biotinamidopentylamine, Thermo Fisher Scientific, Langenselbold, Germany) for the indicated time. After incubation, the plate was washed three times with PBS + 0.05% Tween. After blocking with 5% BSA in PBS for 1 h, the plate was incubated with 2 µg/mL streptavidin-Alexa Fluor 488 (Thermo Fisher Scientific) in 5% BSA. After 3 washing steps with PBS + 0.05% Tween, fluorometric evaluation was performed using a Clariostar Plus (BMG Labtech) microplate reader (no well scan mode, excitation 488 nm, emission 535 nm, fixed gain: 2000).

[3] = target: T3, extracellular TG2 on Caco-2 cells (Homo sapiens, UniProt P21980); assay: Extracellular TG2 activity on confluent Caco-2 cell monolayers (5BP cross-linking); type: cell-based; conditions: n = 4; for reduction of TG2 activity on the cell surface: IFN-γ-stimulated Caco-2 cells, 5BP 3 h
T3 construct: endogenous in cells; host or cells: Caco-2 (differentiated; IFN-γ-stimulated in the monolayer assay)
T3 sequence (P21980 1-687): T1 sequence (P21980 1-687)
Experimental: The method was adapted from Yi et al.. To induce TG2 expression, Caco-2 cells were stimulated with IFN-γ 1000 IU/mL for 48 h. Then, cells were washed three times with warm PBS and incubated with the substrate 5BP for 3 h at 37 °C in 50 mM Tris and 1 mM EDTA (pH 7.5). The substances ERW1041, PX-12 and DTT were added to this solution when indicated. After incubation, cells were washed three times with PBS, fixed with 4% paraformaldehyde for 10 min and blocked with 5% BSA in PBS at 4 °C overnight. Then, cells were incubated at room temperature with streptavidin-Alexa488 (Thermo Scientific, 4 µg/mL) in 5% BSA in the dark for 1 h, followed by three washes with PBS. Fluorometric quantitation was conducted using a FLUOstar Optima microplate reader (BMG Labtech, filter settings: excitation 485 nm, emission 525 nm). Manual gain adjustment was performed, setting the well with the most intense signal as 95%. In all experiments, data were background subtracted against a control without 5BP substrate.

[4] = 100 µM inhibitor, untreated 0.94 ± 0.26 (ERW1041) or 0.91 ± 0.28 (PX-12)

Row | Structure (SMILES) | TG2 activity normalized against TG2 expression in the lamina propria ([1]; 1 µM inhibitor, untreated 0.94 ± 0.26) | TG2 activity normalized against TG2 expression in the lamina propria [1, 4] | TG2 activity in Caco-2 cell lysates [2] [%] | reduction of TG2 activity on the cell surface ([3]; 10 µM) | reduction of TG2 activity on the cell surface ([3]; 100 µM) [%] | inhibition of TG2 on confluent Caco-2 monolayers ([3]; concentrations between 10 nM and 100 µM)
1 | O=C(NC[C@@H]1CC(Br)=NO1)[C@@H]1CCCN1C(=O)OCc1cnc2ccccc2c1 [ERW1041] | 0.58 ± 0.27 | 0.31 ± 0.17 | 45 ± 19 | about 32% | ~70 | –
2 | CCC(C)SSc1ncc[nH]1 (centres unmarked) [PX-12, 2-[(1-methylpropyl)dithio]-1H-imidazole] | – | 0.44 ± 0.21 | 12 ± 7 | – | – | did not observe any significant inhibition of TG2
